Results taken from PubChem BioAssay (NCI).
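Dose response: 5 concentrations. Exposure: 48 h. Format: 96-well plates. Endpoint: linear interpolation; highest concentration if not reached. Abbreviation: GI50, concentration required for 50% inhibition of growth. Definition used: TGI = concentration required for complete inhibition of growth.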

Assays:
Assay in all cases: growth of human tumour cells (NCI), 48 h
[1] = test system: OVCAR-3 ovarian
[2] = test system: K-562 leukemia
[3] = test system: SK-MEL-2 melanoma
[4] = test system: NCI-H522 lung
[5] = test system: MALME-3M melanoma
[6] = test system: COLO 205 colon
[7] = test system: CCRF-CEM leukemia
[8] = test system: A549 NSCLC
[9] = test system: MCF7 breast
[10] = test system: 786-0 renal
[11] = test system: SW-620 colon
[12] = test system: U251 CNS
[13] = test system: UACC-62 melanoma
[14] = test system: HCT-116 colon
[15] = test system: OVCAR-4 ovarian
[16] = test system: SF-539 CNS
[17] = test system: PC-3 prostate
[18] = test system: M14 melanoma
[19] = test system: ACHN renal
[20] = test system: KM12 colon
[21] = test system: IGROV1 ovarian
[22] = test system: OVCAR-8 ovarian
[23] = test system: SF-268 CNS
[24] = test system: SK-MEL-5 melanoma
[25] = test system: HCT-15 colon
[26] = test system: HCC-2998 colon
[27] = test system: MDA-MB-468 breast
[28] = test system: HT29 colon
[29] = test system: NCI-H460 lung
[30] = test system: MOLT-4 leukemia
[31] = test system: OVCAR-5 ovarian
[32] = test system: SK-MEL-28 melanoma
[33] = test system: MDA-MB-435
[34] = test system: EKVX NSCLC
[35] = test system: NCI-H23 lung
[36] = test system: CAKI-1 renal
[37] = test system: T-47D breast
[38] = test system: SK-OV-3 ovarian
[39] = test system: NCI/ADR-RES ovarian
[40] = test system: TK-10 renal
[41] = test system: SN12C renal
[42] = test system: DU-145 prostate
[43] = test system: SNB-19 CNS
[44] = test system: UO-31 renal
[45] = test system: UACC-257 melanoma
[46] = test system: HS 578T breast
[47] = test system: RPMI-8226 leukemia
[48] = test system: NCI-H226 lung
[49] = test system: MDA-MB-231 breast
[50] = test system: LOX IMVI melanoma
[51] = test system: A498 renal
[52] = test system: HOP-62 NSCLC
[53] = test system: SR leukemia
[54] = test system: SNB-75 CNS
[55] = test system: RXF 393 renal
[56] = test system: BT-549 breast
[57] = test system: SF-295 CNS
[58] = test system: HOP-92 NSCLC

Fc1ccc(F)c(CNc2nc(SCCN3CCOCC3)nc3c2cnn3CC(Cl)c2ccc(Br)cc2)c1 (stereo unspecified)
GI50 [1]: 5.71 µM | TGI [1]: > 100 µM | GI50 [2]: 1.77 µM | TGI [2]: > 100 µM | GI50 [3]: 2.04 µM | TGI [3]: 5.04 µM | GI50 [4]: 3.51 µM | TGI [4]: 91.3 µM | GI50 [5]: 1.89 µM | TGI [5]: 5.15 µM | GI50 [6]: 2.13 µM | TGI [6]: 4.98 µM | GI50 [7]: 2.81 µM | TGI [7]: > 100 µM | GI50 [8]: 3.09 µM | TGI [8]: > 100 µM | GI50 [9]: 2.5 µM | TGI [9]: 8.54 µM | GI50 [10]: 2.62 µM | TGI [10]: 17.3 µM | GI50 [11]: 2.78 µM | TGI [11]: 13.8 µM | GI50 [12]: 3.77 µM | TGI [12]: > 100 µM | GI50 [13]: 1.75 µM | TGI [13]: 3.73 µM | GI50 [14]: 2.61 µM | TGI [14]: > 100 µM | GI50 [15]: 3.22 µM | TGI [15]: > 100 µM | GI50 [16]: 3.57 µM | TGI [16]: > 100 µM | GI50 [17]: 2.63 µM | TGI [17]: 62.6 µM | GI50 [18]: 3.21 µM | TGI [18]: > 100 µM | GI50 [19]: 3.65 µM | TGI [19]: > 100 µM | GI50 [20]: 3.72 µM | TGI [20]: > 100 µM | GI50 [21]: 5.03 µM | TGI [21]: > 100 µM | GI50 [22]: 3.77 µM | TGI [22]: > 100 µM | GI50 [23]: 4.27 µM | TGI [23]: > 100 µM | GI50 [24]: 1.62 µM | TGI [24]: 3.01 µM | GI50 [25]: 1.76 µM | TGI [25]: 6.15 µM | GI50 [26]: 4.13 µM | TGI [26]: > 100 µM | GI50 [27]: 1.96 µM | TGI [27]: 4.88 µM | GI50 [28]: 1.14 µM | TGI [28]: 2.68 µM | GI50 [29]: 3.52 µM | TGI [29]: > 100 µM | GI50 [30]: 2.58 µM | TGI [30]: > 100 µM | GI50 [31]: 4.59 µM | TGI [31]: > 100 µM | GI50 [32]: 2.84 µM | TGI [32]: > 100 µM | GI50 [33]: 2.91 µM | TGI [33]: 10.4 µM | GI50 [34]: 3.9 µM | TGI [34]: > 100 µM | GI50 [35]: 4.91 µM | TGI [35]: > 100 µM | GI50 [36]: 3.66 µM | TGI [36]: > 100 µM | GI50 [37]: 2.81 µM | TGI [37]: 38.1 µM | GI50 [38]: 8.7 µM | TGI [38]: > 100 µM | GI50 [39]: 3.13 µM | TGI [39]: > 100 µM | GI50 [40]: 5.24 µM | TGI [40]: > 100 µM | GI50 [41]: 3.22 µM | TGI [41]: > 100 µM | GI50 [42]: 6.12 µM | TGI [42]: > 100 µM | GI50 [43]: 5.34 µM | TGI [43]: > 100 µM | GI50 [44]: 2.87 µM | TGI [44]: > 100 µM | GI50 [45]: 3.25 µM | TGI [45]: 65 µM | GI50 [46]: 2.6 µM | TGI [46]: > 100 µM | GI50 [47]: 2.66 µM | TGI [47]: > 100 µM | GI50 [48]: 2.63 µM | TGI [48]: 8.3 µM | GI50 [49]: 3.11 µM | TGI [49]: 18.6 µM | GI50 [50]: 2.5 µM | TGI [50]: 7.65 µM | GI50 [51]: 4.2 µM | TGI [51]: > 100 µM | GI50 [52]: 6.31 µM | TGI [52]: > 100 µM | GI50 [53]: 3.63 µM | TGI [53]: > 100 µM | GI50 [54]: 2.28 µM | TGI [54]: > 100 µM | GI50 [55]: 1.41 µM | TGI [55]: 4.83 µM | GI50 [56]: 2.38 µM | TGI [56]: 5.96 µM | GI50 [57]: 3.34 µM | TGI [57]: > 100 µM | GI50 [58]: 3.03 µM | TGI [58]: 23.9 µM
